Assay results as given in patent publication US8071591B2, “7-cycloalkylaminoquinolones as GSK-3 inhibitors” (Kyorin Pharmaceutical Co., Ltd., priority 2009, dated 2011).

Tests used:
[1] = test system: HepG2 cells; assay: GS activation: [3H]glucose incorporation into glycogen in HepG2 cells; type: cell-based; details: Homo sapiens, 3 hrs incubation with D-[2-3H]glucose, serum-free low-glucose DMEM, read-out: EC50 for glycogen synthesis
Procedure: HepG2 cells were obtained from the Japanese Collection of Research Bioresources and were grown in standard culture medium, a low-glucose Dulbecco's modified Eagle's medium (DMEM) containing 10% fetal calf serum supplemented with 100 U/mL penicillin and 100 μg/mL streptomycin, in a humidified and 5% CO2 atmosphere kept at 37° C. The HepG2 cells were harvested with 0.25% trypsin solution containing 1 mM EDTA, and were seeded on 12 well plates at 1×10^5 cells per well. Following a culture for 3 days, the cells were washed once with phosphate buffered saline (PBS), and were incubated with serum-free low-glucose DMEM supplemented with 100 U/mL penicillin and 100 μg/mL streptomycin. Following a culture for 3 hrs, GSK-3 inhibitor at various concentration and 2.5 μCi/mL D-[2-^3H]glucose (New England Nuclear, Boston, Mass., USA) were added to the serum-free low-glucose DMEM. A vehicle control of DMSO (0.3%, final concentration) was also used. Total volume per well of the reaction medium was 1.0 mL of serum-free low-glucose DMEM. After incubation at 37° C. for 3 hrs, medium was aspirated and cells were washed twice with PBS, and were added 0.25 mL of 1 N KOH containing 0.4 mg/mL carrier glycogen. […] [^3H]Glucose incorporation into glycogen was assessed using a liquid scintillation counter (Packard Instrument Co., Meriden, Conn., USA).

[2] = test system: Male Crlj:CD1 (ICR) mice; assay: Glucose tolerance study in fasted ICR mice; type: in vivo; details: 10 mg/kg orally, 30 minutes before oral glucose load (5 g/kg), fasted 7-week-old ICR mice
Procedure: Male Crlj:CD1 (ICR) mice were obtained from Charles River Laboratories Japan (Yokohama, Japan). All mice were given a standard diet (Clea Japan, Tokyo, Japan) and tap water ad libitum. All institutional guidelines for animal care and use were applied in this study. Test compounds were suspended in 0.3% carbozymethyl-cellulose sodium salt (CMC-Na; Sigma, St. Louis, Mo.). After fasting for 15-17 hours, the test compound (3, 10, 30, 100 or 300 mg/kg) or vehicle (0.3% CMC-Na) was orally administered to 7-week-old ICR mice. Glucose solution (5 g/kg) was orally administered at 30 minutes after test compound treatment. Blood samples were collected from tail vein using capillary tubes containing EDTA-2K before test compound treatment, and at 0, 0.5, 1, and 2 hours after glucose load. The blood samples were centrifuged at 2,500×g for 5 minutes and separated plasma was kept on ice and analyze in the same day. Plasma glucose levels were determined using the glucose CII-test (Wako Pure Chemical Industries, Osaka, Japan). The sum of plasma glucose levels at 0.5 and 1 hr after glucose load was compared to that of vehicle treatment, and results were presented as percent decrease.

EC50 [1] [nM]	Compound	percent decrease of the sum of plasma glucose levels at 0.5 and 1 hr after glucose load vs vehicle [2] [%]
≤ 300	C[C@H]1COc2c(NC3CCCC(c4cccnc4)C3)c(F)c(N)c3c(=O)c(C#N)cn1c23 (stereo in doubt) [Example 9, (3S)-8-amino-9-fluoro-2,3-dihydro-3-methyl-7-oxo-10-[trans-3-(3-pyridyl)cyclohexylamino]-7H-pyrido[1,2,3-de][1,4]benzoxazine-6-carbonitrile]	
	C[C@H]1COc2c(N[C@@H]3CC[C@@H](c4ccccn4)C3)c(F)c(N)c3c(=O)c(C#N)cn1c23 [Example 2, (3S)-8-amino-9-fluoro-2,3-dihydro-3-methyl-7-oxo-10-[(1R,3R)-3-(2-pyridyl)cyclopentylamino]-7H-pyrido[1,2,3-de][1,4]benzoxazine-6-carbonitrile]	22
≤ 300	C[C@H]1COc2c(N[C@H]3CC[C@H](c4cccnc4)CC3)c(F)c(N)c3c(=O)c(C#N)cn1c23 [Example 7, (3S)-8-amino-9-fluoro-2,3-dihydro-3-methyl-7-oxo-10-[trans-4-(3-pyridyl)cyclohexylamino]-7H-pyrido[1,2,3-de][1,4]benzoxazine-6-carbonitrile]	
